# Measured values published in patent publication US4154839A, “2,6-Dimethyl -3-carboxymethoxy-4-(2-nitrophenyl)-5-carbisobutoxy-1,4-dihydropyridine” (priority 1975, dated 1979).
# Legend:
# heart muscle = experiment: myocardial (heart) perfusion in canines, electromagnetic flow meter, sublingual administration; format: in vivo; settings: for % Increase in Heart Perfusion / Half-life duration (of heart perfusion increase): canines
# Description: The ability of the compound to assist in the perfusion action of the heart muscle can be conveniently observed in recognized pharmacological models. For example, the myocardial perfusion in canines can be observed utilizing an electromagnetic flow meter. Upon sublingual administration to canines, the following pharmacological manifestations are, for example, observed.
# [1] = blood pressure decrease in canines upon sublingual administration; format: in vivo; settings: for Blood Pressure Decrease (%): canines
# stability towards light = format: physicochemical; settings: compared with previously known 1,4-dihydropyridines
# coronary perfusion = experiment: coronary activity / effect on coronary perfusion (general statement); format: in vivo
structure (smiles),measurement,setting,value
"COC(=O)C1=C(C)NC(C)=C(C(=O)OCC(C)C)C1c1ccccc1[N+](=O)[O-] (stereo not shown) [the compound, isobutyl methyl 1,4-dihydro-2,6-dimethyl-4-(2-nitrophenyl)-3,5-pyridinedicarboxylate]",% Increase in Heart Perfusion,heart muscle; 0.003 mg/kg sublingual,23%
same,Half-life duration (of heart perfusion increase),heart muscle; 0.003 mg/kg sublingual,100 min
same,% Increase in Heart Perfusion,heart muscle; 0.01 mg/kg sublingual,46%
same,Half-life duration (of heart perfusion increase),heart muscle; 0.01 mg/kg sublingual,133 min
same,% Increase in Heart Perfusion,heart muscle; 0.1 mg/kg sublingual,142%
same,Half-life duration (of heart perfusion increase),heart muscle; 0.1 mg/kg sublingual,184 min
same,"increase of perfusion of the heart muscle, dose dependence (in words)",heart muscle; sublingual administration,increases the perfusion of the heart muscle and that this action is a function of dose
same,onset of action after sublingual administration,heart muscle; sublingual administration,a few minutes after sublingual administration
same,total duration of action on heart muscle perfusion,"heart muscle; sublingual administration, depending upon the dose",2 to 6 h
same,Blood Pressure Decrease (%),[1]; 0.003 mg/kg sublingual,.phi.
same,Blood Pressure Decrease (%),[1]; 0.01 mg/kg sublingual,5%
same,Blood Pressure Decrease (%),[1]; 0.1 mg/kg sublingual,13%
same,lowering of blood pressure (in words),[1]; sublingual administration,slight and equally long lasting lowering of blood pressure
same,stability towards light,stability towards light,"considerably greater stability towards light than previously known 1,4-dihydropyridines"
same,"coronary activity, magnitude and length of action","coronary perfusion; compared with any 1,4-dihydropyridine presently known","significantly greater than any 1,4-dihydropyridine presently known"
same,effect on coronary perfusion (in words),coronary perfusion; in vivo,powerful and long acting effect on coronary perfusion
